Test results: US20220226282A1 (priority 2021, published 2022)
Where “and” joins values, the source holds several entries; their conditions need not be identical. Equal entries are not always repeated. Where two headings read alike, the source gives them in different places.

Key:
BoNT/A LC [1] = target: T1, BoNT/A LC (Clostridium botulinum, UniProt P0DPI0); assay: biochemical; format: binding, C. botulinum
BoNT/A LC [2] = target: T1, BoNT/A LC; assay: biochemical; format: biochemical, C. botulinum
BoNT/A LC [3] = target: T1, BoNT/A LC; assay: biochemical; format: binding, C. botulinum; remark: listed apart in the source
BoNT/A LC [4] = target: T1, BoNT/A LC; assay: biochemical; set-up: species or system C. botulinum; conditions: read-out: % inhibition of the LCA endopeptidase activity

T1 sequence (P0DPI0 2-448 limits assumed): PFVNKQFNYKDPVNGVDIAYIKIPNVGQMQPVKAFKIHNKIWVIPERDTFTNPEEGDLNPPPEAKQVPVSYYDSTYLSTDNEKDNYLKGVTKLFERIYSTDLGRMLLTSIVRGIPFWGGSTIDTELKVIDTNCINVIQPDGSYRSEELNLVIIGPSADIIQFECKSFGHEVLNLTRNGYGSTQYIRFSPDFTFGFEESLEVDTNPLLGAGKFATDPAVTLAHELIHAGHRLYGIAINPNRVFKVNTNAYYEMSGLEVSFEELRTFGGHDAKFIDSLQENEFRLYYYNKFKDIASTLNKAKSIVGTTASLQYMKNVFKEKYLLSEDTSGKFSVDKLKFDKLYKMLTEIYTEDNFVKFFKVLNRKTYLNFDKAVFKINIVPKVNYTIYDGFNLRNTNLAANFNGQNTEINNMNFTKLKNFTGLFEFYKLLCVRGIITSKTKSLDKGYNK

Question: With `O=c1ccc2cc3c(-c4ccc([N+](=O)[O-])cc4)coc3cc2o1` [Compound 1, 3-(4-nitrophenyl)-7H-furo[3,2-g]chromen-7-one] as the compound, how does the “antidote activity against paralytic actions of BoNT” value (BoNT) read?
Answer: Its value is “efficient antidote with the ability to mitigate the paralytic actions of BoNT”.

Question: What about the “corrected intensity of Trp fluorescence signal at λmax of BoNT/A LC (signal reduced to)” value (BoNT/A LC [1]) of the same compound?
Answer: The value was 88% and 84% and 73% and 59%.

Question: What about the “n (number of binding sites)” value (BoNT/A LC [1]) of the same compound?
Answer: The value was 0.90.

Question: And the ΔH (BoNT/A LC [1])?
Answer: The ΔH was -70.8 kJ/mol.

Question: And the ΔS (BoNT/A LC [1])?
Answer: Its ΔS is −0.15 kJ · mol^−1 K^−1.

Question: And the Kd (BoNT/A LC [1]; Ka (binding constant))?
Answer: Its Kd is 38 µM and 115 µM.

Question: What about the Vmax (BoNT/A LC [2]) of the same compound?
Answer: The Vmax was 2.13 ± 0.5 RFU/s and 2.09 ± 0.2 RFU/s and 1.56 ± 1.1 RFU/s.

Question: And the type of inhibition (BoNT/A LC [2])?
Answer: Its type of inhibition is “mixed (non-competitive) type of inhibition”.

Question: What about the Ki (BoNT/A LC [2]; Ki) of the same compound?
Answer: Its Ki is 5.8 ± 0.7 µM.

Question: What about the Ki (BoNT/A LC [2]; Ki′) of the same compound?
Answer: The Ki was 11.5 ± 2.9 µM.

Question: What about the “Ka (association constant)” value (BoNT/A LC [3]) of the same compound?
Answer: Its value is 760900 M⁻¹.

Question: And the Kd (BoNT/A LC [3])?
Answer: Its Kd is 1310 nM.

Question: What about the “N (number of binding sites, binding stoichiometry)” value (BoNT/A LC [3]) of the same compound?
Answer: The value was 2.8 and 2.760.

Question: And the “ΔH (change in enthalpy)” value (BoNT/A LC [3])?
Answer: Its value is -10.00 kJ/mol.

Question: And the “ΔS (change in entropy)” value (BoNT/A LC [3])?
Answer: The value was 79.05 J/mol · K.

Question: And the inhibition at 81 µM (BoNT/A LC [4])?
Answer: The inhibition at 81 µM was about 100%.
